# Measured values as given in patent US20080026996A1, “Selective Vpac2 Receptor Reptide Agonists” (ELI LILLY AND COMPANY, priority 2004, published 2008).
# Where a SMILES comes first, the peptide text is derived from it. Where no end group is shown, it is not given here. [ ]: non-standard residue; d: D form. The star is where a group is joined. Orn = NCCC[C@H](N)C(=O)O; Hexanoyl = CCCCCC(=O)*; Aib = CC(C)(N)C(=O)O
# Assays:
# human PAC1 = target: T1, human PAC1 (Homo sapiens, UniProt P41586); assay: Filter binding assay, membranes of cells transiently transfected with human PAC1, 125I-labeled PACAP-27 tracer (Table 2); parameters: expressed in transfected cells; details: read-out: Human PAC1 Receptor Binding
# T1 sequence (P41586 21-468): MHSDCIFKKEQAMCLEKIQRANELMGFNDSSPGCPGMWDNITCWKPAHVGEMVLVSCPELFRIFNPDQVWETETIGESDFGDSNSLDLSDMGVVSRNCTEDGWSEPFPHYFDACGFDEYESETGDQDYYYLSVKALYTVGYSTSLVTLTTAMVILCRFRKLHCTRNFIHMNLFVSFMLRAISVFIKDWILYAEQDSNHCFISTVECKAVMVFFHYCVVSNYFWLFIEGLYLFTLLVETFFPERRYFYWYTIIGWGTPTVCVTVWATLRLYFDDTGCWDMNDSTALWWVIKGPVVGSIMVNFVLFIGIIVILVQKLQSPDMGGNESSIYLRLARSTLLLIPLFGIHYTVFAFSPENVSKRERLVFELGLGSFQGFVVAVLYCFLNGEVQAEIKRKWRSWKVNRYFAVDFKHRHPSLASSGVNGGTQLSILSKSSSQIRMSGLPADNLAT
# Procedure, shortened: (§1)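 Membranes 2.5 μg/well; tracer ~40000 cpm; buffer 25 mM HEPES pH 7.4, 0.5% protease-free BSA; 1 h incubation, shaking. Glass-fibre filtration (0.5% polyethyleneamine presoak, 0.2% BSA block), 3× HEPES wash, dry 1 h at 60° C, scintillation count.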
# human VPAC2 [1] = target: T2, human VPAC2 (Homo sapiens, UniProt P41587); assay: Alpha screen cAMP in vitro potency, human VPAC2 receptor; assay type: cell-based; details: cAMP generation; single result from two analyses performed in a single run; read-out: Human VPAC2 Receptor: Alpha Screen EC50
# T2 construct: expressed in transfected cells
# T2 sequence (P41587 24-438): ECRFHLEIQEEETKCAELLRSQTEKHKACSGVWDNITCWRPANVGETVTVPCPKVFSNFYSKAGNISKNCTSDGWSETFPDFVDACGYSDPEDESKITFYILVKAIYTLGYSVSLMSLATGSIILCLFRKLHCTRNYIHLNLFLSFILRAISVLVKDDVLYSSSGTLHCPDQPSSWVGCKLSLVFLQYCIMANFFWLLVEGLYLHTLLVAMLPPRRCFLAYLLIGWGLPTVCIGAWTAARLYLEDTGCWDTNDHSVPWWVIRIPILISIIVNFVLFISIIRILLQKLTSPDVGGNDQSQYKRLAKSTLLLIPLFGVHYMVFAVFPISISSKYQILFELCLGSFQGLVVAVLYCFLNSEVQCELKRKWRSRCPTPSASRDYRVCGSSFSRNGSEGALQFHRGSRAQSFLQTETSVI
# Procedure, shortened: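 Cells were detached with enzyme-free dissociation buffer, washed into stimulation buffer and used at 50,000 cells per data point. Stimuli and AlphaScreen acceptor beads were added for 60 minutes, then lysis buffer with donor beads for 60 to 120 minutes; the AlphaScreen signal reports intracellular cAMP.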
# human VPAC2 [2] = target: T2, human VPAC2; assay: Filter binding assay, membranes of stable VPAC2 cell line, 125I-labeled VIP tracer (Table 2); details: read-out: Human VPAC2 Receptor Binding
# Procedure, shortened: as §1
# [3] = Rat serum stability studies (remaining active peptide by DiscoveRx cAMP on CHO-VPAC2 cells); assay type: in vitro ADME
# Procedure, shortened: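 EC50 from a DiscoveRx cAMP read-out on CHO-VPAC2 cells indexes how much peptide stays active after 18 h in rat serum at 37° C without aprotinin, against an aprotinin-protected 4° C aliquot.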
# human VPAC1 = target: T3, human VPAC1 (Homo sapiens, UniProt P32241); assay: Filter binding assay, membranes of cells transiently transfected with human VPAC1, 125I-labeled VIP tracer (Table 2); parameters: expressed in transfected cells; details: read-out: Human VPAC1 Receptor Binding
# T3 sequence (P32241 31-457): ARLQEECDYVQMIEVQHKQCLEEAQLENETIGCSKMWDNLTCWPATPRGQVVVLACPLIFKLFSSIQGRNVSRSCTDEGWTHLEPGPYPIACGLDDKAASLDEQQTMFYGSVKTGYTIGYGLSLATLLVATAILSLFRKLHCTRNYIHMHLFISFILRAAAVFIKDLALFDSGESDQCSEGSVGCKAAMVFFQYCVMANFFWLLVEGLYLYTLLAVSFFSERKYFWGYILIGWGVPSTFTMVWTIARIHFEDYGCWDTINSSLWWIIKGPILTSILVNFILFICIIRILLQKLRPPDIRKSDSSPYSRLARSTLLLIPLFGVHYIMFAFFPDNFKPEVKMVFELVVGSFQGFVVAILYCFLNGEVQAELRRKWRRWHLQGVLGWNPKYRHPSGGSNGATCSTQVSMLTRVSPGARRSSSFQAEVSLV
# Procedure, shortened: as §1
Molecule,IC50 (human PAC1) [nM],EC50 (human VPAC2 [1]) [nM],IC50 (human VPAC2 [2]) [nM],Rat Serum Stability (estimated purity in % after 18 hours) [3] [%],IC50 (human VPAC1) [nM],Rat Serum Stability (Estimated purity in % after 72 hours) [3] [%]
Hexanoyl-HSDAVFTDNYTRLRKQVAAKKYWQSIKNKRYGGPSSGAPPPS [Agonist P230],463,0.3,0.75,0.53,661,–
Hexanoyl-HSDAVFTDNYTRLQ[Aib]QVAAKKYLQSIKNKRYGGPSSGAPPPS [Agonist P258],> 25000,0.17,0.63,9.47,> 3000,–
Hexanoyl-HSDAVFTDNYTRLL[Aib]QVAA[Aib]KYLQSIKNKRYGGPSSGAPPPS [Agonist P317],> 25000,0.36,1.23,33.34,> 3000,21.5
Hexanoyl-HSDAVFTDNYTRLR[Orn]QVAAKKYLQSIKNKRYGGPSSGAPPPS [Agonist P307],293,0.32,0.28,0.32,274,–
Hexanoyl-HSDAVFTDNYTRLRK(Ac)QVAAK(Ac)KYLQSIKNKRYGGPSSGAPPPS [Agonist P193],542,0.18,0.37,0.25,250,–
Hexanoyl-HSDAVFTDNYTRLR[Aib]QVAAVKYLQSIKNKRYGGPSSGAPPPS [Agonist P262],> 25000,0.24,0.61,10.14,> 3000,–
Hexanoyl-HSDAVFTDNYTRL[Aib]KQVAAQKYLQSIKNKRYGGPSSGAPPPS [Agonist P243],> 25000,0.28,5.51,12.12,> 3000,–
Hexanoyl-HSDAVFTDNYTRLRKQVAAVKYLQSIKNKRYGGPSSGAPPPS [Agonist P146],1540,0.17,0.52,0.53,401,–
Hexanoyl-HSDAVFTDNYTRL[Aib]KQLAA[Aib]KYLQSIKNKRYGGPSSGAPPPS [Agonist P240],> 25000,0.51,6.08,43.87,> 3000,10.4
Hexanoyl-HSDAVFTDNYTRLRKQVALKKYLQSIKNKRYGGPSSGAPPPS [Agonist P155],148,0.24,0.71,0.25,231,–
Hexanoyl-HSDAVFTDNYTRLRAQVAAKKYLQSIKNKRYGGPSSGAPPPS [Agonist P139],> 25000,0.2,0.34,0.33,235,–
Hexanoyl-HSDAVFTDNYTRL[Orn][Aib]QVAA[Aib]KYLQSIKNKRYGGPSSGAPPPS [Agonist P319],> 25000,0.26,0.69,13.53,> 3000,–
CCCCCC(=O)N[C@@H](Cc1c[nH]cn1)C(=O)N[C@@H](CO)C(=O)N[C@@H](CC(=O)O)C(=O)N[C@@H](C)C(=O)N[C@H](C(=O)N[C@@H](Cc1ccccc1)C(=O)N[C@H](C(=O)N[C@@H](CC(=O)O)C(=O)N[C@@H](CCC(N)=O)C(=O)N[C@@H](Cc1ccc(O)cc1)C(=O)N[C@H](C(=O)N[C@@H](CCCNC(=N)N)C(=O)N[C@@H](CC(C)C)C(=O)N[C@@H](CCCNC(=N)N)C(=O)N[C@@H](CCCNC(=N)N)C(=O)N[C@@H](CCC(N)=O)C(=O)N[C@H](C(=O)N[C@@H](C)C(=O)N[C@@H](C)C(=O)N[C@@H](CCCNC(=N)N)C(=O)N[C@@H](CCCCN)C(=O)N[C@@H](Cc1ccc(O)cc1)C(=O)N[C@@H](CC(C)C)C(=O)N[C@@H](CCC(N)=O)C(=O)N[C@@H](CO)C(=O)N[C@H](C(=O)N[C@@H](CCCNC(=N)N)C(=O)N[C@@H](CCC(N)=O)C(=O)NCC(=O)NCC(=O)N1CCC[C@H]1C(=O)N[C@@H](CO)C(=O)N[C@@H](CO)C(=O)NCC(=O)N[C@@H](C)C(=O)N1CCC[C@H]1C(=O)N1CCC[C@H]1C(=O)N1CCC[C@H]1C(=O)N[C@@H](CO)C(=O)O)[C@@H](C)CC)C(C)C)[C@@H](C)O)[C@@H](C)O)C(C)C [Agonist P220] (Hexanoyl-HSDAVFTDQYTRLRRQVAARKYLQSIRQGGPSSGAPPPS-OH; C-terminus assumed),849,0.12,0.25,0.08,5.86,–
Hexanoyl-HSDAVFTDNYTRLR[Aib]QVAAAKYLQSIKNKRYGGPSSGAPPPS [Agonist P263],636,0.07,0.38,11.72,2680,–
Hexanoyl-HSDAVFTDNYTRLRKQVAAKKYLQSFKNKRYGGPSSGAPPPS [Agonist P106],1820,0.16,0.22,0.11,118,–
Hexanoyl-HSDAVFTDNYTRLRRQVAAKKYLQSIKNKRYGGPSSGAPPPS [Agonist P176],227,0.28,6.88,<0.14,93,–
Hexanoyl-HSDAVFTDNYTRLRKQVAAKKYAQSIKNKRYGGPSSGAPPPS [Agonist P235],1110,0.82,1.47,2.62,1340,–
Hexanoyl-HSDAVFTDNYTRLRKQVAAKKYIQSIKNKRYGGPSSGAPPPS [Agonist P233],320,0.11,0.31,1.27,323,–
Hexanoyl-HSDAVFTDNYTRLRKQVAAKKYFQSIKNKRYGGPSSGAPPPS [Agonist P231],300,0.26,0.55,0.57,458,–
Hexanoyl-HSDAVFTDNYTRLRKQVAAKQYLQSIKNKRYGGPSSGAPPPS [Agonist P183],506,0.14,0.26,0.18,424,–
Hexanoyl-HSDAVFTDNYTRLRKQVAAKFYLQSIKNKRYGGPSSGAPPPS [Agonist P186],318,0.15,0.87,0.25,835,–
Hexanoyl-HSDAVFTDNYTRLQKQVAAQKYLQSIKNKRYGGPSSGAPPPS [Agonist P252],> 25000,0.26,0.98,1.19,1180,–
Hexanoyl-HSDAVFTDNYTRLRKQVAAKRYLQSIKNKRYGGPSSGAPPPS [Agonist P182],429,0.29,0.17,0.15,205,–
